We go through three compounds from US20030077653A1, “Method for the identification of active site protease inactivators” (The University of Georgia Research Foundation, Inc., priority 2000, published 2003).

Starred links: 1 amine or outer side, 2 acyl side, 3 side chain; linkers in the order of their positions; H or OH if unused. Residues, ends and D or L forms follow the SMILES beside them. *: point of attachment. AFC = O=c1cc(C(F)(F)F)c2ccc(N*)cc2o1; Morpholide = C1CN(*)CCO1; Cbz = O=C(OCc1ccccc1)*; CO = O=C([*:1])[*:2]; CH2F = FC*

For assay [1], the target named is Cathepsin B (Homo sapiens, UniProt P07858). Briefly: Differential cleavage (selectivity) test. It is filed as biochemical. The settings on record: pH 6.1, Z-ARR-AFC. On the procedure: (§1) In order to perform the assay, the vehicle (for Step VI) or inhibitor (for Step IX) were incubated with the appropriate substrate in the correct assay buffer and allowed to equilibrate. Subsequently, the protease was added, and the assay was allowed to incubate for an appropriate time. The concentrations used in this experiment were as follows: Vehicle was set up at 4×10^−5 M in final assay buffer; Inhibitor was set up at 3×10^−10 M in the final assay buffer. Accordingly, the dosages employed should be the minimal amount of vehicle or inhibitor necessary to induce inhibition. […] Substrates were set up based upon the preferred substrate for cleavage of the particular enzyme.
(§2) Positive controls were set up similarly as described for test controls, except that solvent was added in substitution for the inhibitor or vehicle (in a volume equal to the volume of inhibitor or vehicle addition). All of the inhibitors and vehicles could be dissolved in dimethylsulfoxide (DMSO), and therefore, this was the solvent of choice. Negative controls were set up by adding the inhibitor or vehicle and the preferred substrates in a tube without the protease. All potential non-proteolytic liberation of AFC was therefore controlled for in this tube (a feature which also insured stability of the AFC substrates, since these substrates will freely liberate AFC when unstable).
(§3) All controls were set up in triplicate, and experiments were repeated a minimum of five times.
(§4) Percent inhibition was calculated as: [formula]
(§5) In this preliminary test, we employed the following human-derived enzymes (with indicated mechanistic class): Cathepsin B (cysteine), Cathepsin L (cysteine), Cathepsin H (cysteine), Cathepsin D (aspartic) Trypsin (serine), the purified Taenia solium cysteine protease, and the Taenia solium crude mix. Cathepsin B was prepared in an assay buffer of 10 mM L-cysteine in 0.4 M Citrate buffer, pH 6. 1, using Z-ARR-AFC as the cleavage substrate. Cathepsin L was prepared in an assay buffer of 10 mM L-cysteine in 0.4 M Citrate buffer, pH 5.5, using Z-FR-AFC as the cleavage substrate. Cathepsin H was prepared in an assay buffer of 10 mM L-cysteine in 0.15 M PBS buffer, pH 6.8, using L- R-AFC as the cleavage substrate. Cathepsin D was prepared in an assay buffer of 0.15 M PBS, pH 7.1, using Z-RGFFP-AFC as the cleavage substrate. Trypsin was prepared in an assay buffer of 0.15 M PBS, pH 8.0, supplemented with 100 mM CaCl2 and with Z-R-AFC as the cleavage substrate. Enzyme was incubated so that it was at least 50 times less than the concentration of substrate in order to insure saturating conditions.

Assay [2] deals with Cathepsin D (Homo sapiens, UniProt P07339). Description: Differential cleavage (selectivity) test. Format: biochemical. As to conditions: pH 7.1, Z-RGFFP-AFC. The protocol: as §1, §2, §3, §4, §5
Chain of Cathepsin D (P07339 65-412): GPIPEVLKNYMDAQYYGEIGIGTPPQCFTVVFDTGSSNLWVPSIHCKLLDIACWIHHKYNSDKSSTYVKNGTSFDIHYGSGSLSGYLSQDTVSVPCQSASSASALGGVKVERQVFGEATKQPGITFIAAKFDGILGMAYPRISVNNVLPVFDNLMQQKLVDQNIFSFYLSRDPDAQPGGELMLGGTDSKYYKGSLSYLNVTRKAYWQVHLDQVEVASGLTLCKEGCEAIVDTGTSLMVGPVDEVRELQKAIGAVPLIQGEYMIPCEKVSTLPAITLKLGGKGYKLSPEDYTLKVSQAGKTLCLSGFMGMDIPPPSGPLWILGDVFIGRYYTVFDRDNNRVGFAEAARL
Assay [3] deals with T1, Cathepsin H (Homo sapiens, UniProt P09668).
T1 sequence (P09668 98-335): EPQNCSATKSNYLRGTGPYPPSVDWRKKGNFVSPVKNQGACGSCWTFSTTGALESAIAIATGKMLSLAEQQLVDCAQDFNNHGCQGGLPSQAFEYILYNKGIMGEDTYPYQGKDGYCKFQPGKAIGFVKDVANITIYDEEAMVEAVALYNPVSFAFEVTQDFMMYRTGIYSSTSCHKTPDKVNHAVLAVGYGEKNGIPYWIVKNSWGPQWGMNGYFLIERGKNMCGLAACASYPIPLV
Briefly: Differential cleavage (selectivity) test. As to conditions: pH 6.8, L-R-AFC. Format: biochemical. The protocol:
as §1, §2, §3, §4, §5

Assay [4] relates to Trypsin. Briefly: Differential cleavage (selectivity) test. As to conditions: pH 8.0, Z-R-AFC. Format: biochemical, human. On the procedure: as §1, §2, §3, §4, §5
Assay [5] has as its system purified Taenia solium cysteine protease. Description: Protease inactivator inhibition assay (EC100, Ki; Step VII). Format: biochemical. The text has this: Once the protease inactivators were synthesized in the organic laboratory, they were to be tested for the lowest efficacious concentrations at which they induced 100% inhibition of the target protease (EC100). The top percent cocktail that was employed in the final vehicle selection step of Step III was employed as the source of competition for the inhibitors. In this case, this was the […] which was comprised of Z-FR-AFC, Z-FAR-AFC, Z-AP-AFC, Z-AAK-AFC, and Z-VLR-AFC. The final result would be a ranking of transition state candidate protease inactivators with a high ranking directly correlating to a low ECIoo value. The following steps describe the assay:
Step A: Initial Screening. To set up the test control, each protease inactivator was first incubated with the 5% cocktail (which provided the final differentiation of vehicles in Step III). To begin with, the protease inactivator was incubated at a concentration of 3×10^−9M in 500 μl of assay buffer (0.2 M Citrate, pH 4.9 supplemented with 10mM L-cysteine). This concentration was determined, after a series of inhibitor dilutions identified, to be the best inhibitor concentration at which a differentiation in inhibitor potential could be noted. Next, a concentration equal to 4×10^−5M for each of the individual cocktail components, was added to the mix. The components were allowed to equilibrate for a period of 30 minutes. […]
Percent inhibition was calculated as: [formula] […]
Step C: Determination ofInhibitor Ki and mode of inhibition, and re-ranking of EC100 list with inhibitor Ki. Ki of each of the top ranked protease inactivators, based upon low EC100 values, was assessed next for the top 5 EC100 inhibitors.
In order to determine Ki, all of the high Vmax cocktail substrates were employed for Ki determination (since Ki of the inhibitor for the enzyme is the same regardless of the substrate). To insure the highest accuracy, Ki was to be determined upon a minimum of at least three of the high Kcat substrates. […]

On to `CC(C)C[C@H](NC(=O)N1CCOCC1)C(=O)N[C@@H](Cc1ccc(O)cc1)C(=O)Nc1ccc2c(C(F)(F)F)cc(=O)oc2c1` [Mu-LY-AFC, Mu-Leu-Tyr-AFC] ({Morpholide-CO}-Leu-Tyr-{AFC}), for which, in assay [1] (vehicle 4×10^−5 M), the “Percent inhibition of Cathepsin B (cysteine)” value is given as 0%. Further, the “Percent inhibition of Cathepsin D (aspartic)” value in assay [2] (vehicle 4×10^−5 M) amounted to 0%. In addition, the “Percent inhibition of Cathepsin H (cysteine)” value in assay [3] (vehicle 4×10^−5 M) turned out to be 0%. In assay [4] (vehicle 4×10^−5 M), the “Percent inhibition of Trypsin (serine)” value was 0%.

As for `CC(C)C[C@H](NC(=O)OCc1ccccc1)C(=O)N[C@@H](CC(C)C)C(=O)N[C@@H](Cc1ccc(O)cc1)C(=O)CF` [Z-LLY-FMK, Z-Leu-Leu-Tyr-FMK] (Cbz-Leu-Leu-Tyr-CH2F), in assay [1] (inhibitor 3×10^−10 M), the “Percent inhibition of Cathepsin B (cysteine)” value was 0%. The “Percent inhibition of Cathepsin D (aspartic)” value in assay [2] (inhibitor 3×10^−10 M) turned out to be 0%. Further, the “Percent inhibition of Cathepsin H (cysteine)” value in assay [3] (inhibitor 3×10^−10 M) amounted to 0%. Moreover, the “ranking of protease inactivators by inhibition / EC100” value in assay [5] is recorded as “top inhibitors”. In assay [4] (inhibitor 3×10^−10 M), the “Percent inhibition of Trypsin (serine)” value stood at 0%.

For `CC(C)C[C@H](NC(=O)[C@H](CC(C)C)NC(=O)[C@H](CC(C)C)NC(=O)OCc1ccccc1)C(=O)CF` [Z-LLL-FMK, Z-Leu-Leu-Leu-fluoromethylketone] (Cbz-Leu-Leu-Leu-CH2F), the “Percent inhibition of Cathepsin B (cysteine)” value in assay [1] (inhibitor 3×10^−10 M) is reported as 0%. The “Percent inhibition of Cathepsin D (aspartic)” value in assay [2] (inhibitor 3×10^−10 M) was determined as 0%. Also, the “Percent inhibition of Cathepsin H (cysteine)” value in assay [3] (inhibitor 3×10^−10 M) was 0%. In addition, the “ranking of protease inactivators by inhibition / EC100” value in assay [5] is reported as “top inhibitors”. Further, in assay [4] (inhibitor 3×10^−10 M), the “Percent inhibition of Trypsin (serine)” value came out at 0%.
